Data published in the NIST ThermoML archive (doi:10.1007/s10765-008-0514-x).
Where “and” joins values, the source holds several entries; their conditions need not be identical. Identical values can stand only once. ± gives the expanded uncertainty stated by the source.

Test: cn = amount concentration of the nth substance listed, in mol/dm3
Details: 101 kPa, Liquid, c1 = 2

Structure (SMILES) | mass density (298.15 K) | speed of sound (298.15 K) | mass density (303.15 K) | speed of sound (303.15 K) | mass density (308.15 K) | speed of sound (308.15 K) | mass density (313.15 K) | speed of sound (313.15 K) | mass density (318.15 K) | speed of sound (318.15 K) | mass density (323.15 K) | speed of sound (323.15 K)
[Cl-].[K+] [potassium chloride] + O | 1089.1 ± 1.7 kg/m3 | 1595.2 ± 3.3 m/s | 1087.5 ± 1.8 kg/m3 | 1605.9 ± 3.3 m/s | 1085.6 ± 1.9 kg/m3 | 1610.2 ± 3.3 m/s | 1083.4 ± 1.9 kg/m3 | 1616.4 ± 3.4 m/s | 1080.9 ± 2 kg/m3 | 1621.4 ± 3.4 m/s | 1078.3 ± 2.1 kg/m3 | 1626.5 ± 3.4 m/s
O=[N+]([O-])[O-].[K+] [potassium nitrate] + O | 1122.9 ± 1.8 kg/m3 | 1562 ± 3.3 m/s | 1120.6 ± 1.9 kg/m3 | 1569.4 ± 3.3 m/s | 1118 ± 1.9 kg/m3 | 1575.8 ± 3.3 m/s and 1575 ± 3.3 m/s | 1115 ± 2 kg/m3 | 1580 ± 3.3 m/s | 1111.8 ± 2.1 kg/m3 | 1584.6 ± 3.3 m/s and 1584.5 ± 3.3 m/s | 1108.2 ± 2.1 kg/m3 | 1588.9 ± 3.3 m/s and 1588.8 ± 3.3 m/s
